First: N#CCCC(=O)N[C@H]1CC[C@H](CCN2CCN(c3cc(C(F)(F)F)cc(C(F)(F)F)c3)CC2)CC1 [Example 213, N-(4-{2-[4-(3,5-Bistrifluoromethylphenyl)piperazin-1-yl]ethyl}cyclohexyl)-3-cyanopropanamide]
Second: CC(=O)CCC(=O)N[C@H]1CC[C@H](CCN2CCN(c3cc(C(F)(F)F)cc(C(F)(F)F)c3)CC2)CC1 [Example 222, 4-Oxopentanoic acid (4-{2-[4-(3,5-bis-trifluoromethylphenyl)piperazin-1-yl]ethyl}cyclohexyl)amide]
The melting point of the first is lower: 158 to 159 °C for the first, 172 to 174 °C for the second.

First: N#CCCC(=O)N[C@H]1CC[C@H](CCN2CCN(c3cccc(C(F)(F)F)c3F)CC2)CC1 [Example 214, 3-Cyano-N-(4-{2-[4-(2-fluoro-3-trifluoromethylphenyl)piperazin-1-yl]ethyl}cyclohexyl)propanamide trans/cis 95/5]
Second: CC(=O)CCC(=O)N[C@H]1CC[C@H](CCN2CCN(c3cccc(C(F)(F)F)c3F)CC2)CC1 [Example 231, 4-Oxopentanoic acid (4-{2-[4-(2-fluoro-3-trifluoromethyl-phenyl)piperazin-1-yl]ethyl}cyclohexyl)amide]
The melting point of the first is lower: 153 °C for the first, 178 °C for the second.

Compared with `COc1c(Cl)cccc1N1CCN(CC[C@H]2CC[C@H](NC(=O)CC#N)CC2)CC1` [Example 215, N-(4-{2-[4-(3-Chloro-2-methoxyphenyl)piperazin-1-yl]ethyl}cyclohexyl)-2-cyanoacetamide], `N#CCC(=O)N[C@H]1CC[C@H](CCN2CCN(c3cccc(Cl)c3C#N)CC2)CC1` [Example 246, N-(4-{2-[4-(3-Chloro-2-cyanophenyl)piperazin-1-yl]ethyl}cyclohexyl)-2-cyanoacetamide] is higher in melting point: 122 °C for the first, 232 to 233 °C for the second.

Going from `N#CCC(=O)N[C@H]1CC[C@H](CCN2CCN(c3cccc(Cc4ccccc4)c3)CC2)CC1` [Example 216, N-(4-{2-[4-(3-Benzylphenyl)-piperazin-1-yl]ethyl}cyclohexyl)-2-cyanoacetamide] to `N#CCC(=O)N[C@H]1CC[C@H](CCN2CCN(c3ccccc3Oc3ccccc3)CC2)CC1` [Example 245, 2-Cyano-N-(4-{2-[4-(2-phenoxyphenyl)piperazin-1-yl]ethyl}cyclohexyl)acetamide], the melting point rises from 168 °C to 169 °C.

First: CCOC(=O)Nc1cccc(N2CCN(CC[C@H]3CC[C@H](NC(=O)CC#N)CC3)CC2)c1 [Example 217, [3-(4-{2-[4-(2-Cyanoacetylamino)cyclohexyl]ethyl}piperazin-1-yl)phenyl] carbamic acid ethyl ester]
Second: CS(=O)(=O)Nc1cccc(N2CCN(CC[C@H]3CC[C@H](NC(=O)CC#N)CC3)CC2)c1 [Example 240, 2-Cyano-N-(4-{2-[4-(3-methanesulfonylaminophenyl)piperazin-1-yl]ethyl}cyclohexyl)-acetamide]
The melting point of the first is lower: 170 °C for the first, 194 °C for the second.

Going from `N#CCC(=O)N[C@H]1CC[C@H](CCN2CCC(c3cccc(C(F)(F)F)c3)CC2)CC1` [Example 218, 2-Cyano-N-(4-{2-[4-(3-trifluoromethylphenyl)piperidin-1-yl]ethyl}cyclohexyl)acetamide] to `CN(C)CCCC(=O)N[C@H]1CC[C@H](CCN2CCN(c3cccc(C(F)(F)F)c3)CC2)CC1` [Example 223, 4-Dimethylamino-N-(4-{2-[4-(3-trifluoromethylphenyl)piperazin-1-yl]ethyl}cyclohexyl)butanamide], the melting point falls from 129 °C to 128 °C.

Going from `Cc1cccc(N2CCN(CC[C@H]3CC[C@H](NC(=O)CC#N)CC3)CC2)c1C` [Example 219, 2-Cyano-N-(4-{2-[4-(2,3-dimethylphenyl)piperazin-1-yl]ethyl}cyclohexyl)acetamide] to `Cc1ccccc1N1CCN(CC[C@H]2CC[C@H](NC(=O)CC#N)CC2)CC1` [Example 220, 2-Cyano-N-{4-[2-(4-o-tolylpiperazin-1-yl)ethyl]cyclohexyl}acetamide], the melting point falls from 166 °C to 150 °C.

Compared with `COc1ccc(OC)c(N2CCN(CC[C@H]3CC[C@H](NC(=O)CC#N)CC3)CC2)c1` [Example 221, 2-Cyano-N-(4-{2-[4-(2,5-dimethoxyphenyl)piperazin-1-yl]ethyl}cyclohexyl)acetamide], `Cc1ccc(Cl)c(N2CCN(CC[C@H]3CC[C@H](NC(=O)CC#N)CC3)CC2)c1` [Example 227, N-(4-{2-[4-(2-Chloro-5-methylphenyl)piperazin-1-yl]ethyl}cyclohexyl)-2-cyanoacetamide] is higher in melting point: 171 to 173 °C for the first, 174 °C for the second.

Going from `O=C(COc1ccc(F)cc1)N[C@H]1CC[C@H](CCN2CCN(c3cccc(C(F)(F)F)c3)CC2)CC1` [Example 224, 2-(4-Fluorophenoxy)-N-(4-{2-[4-(3-trifluoromethylphenyl)-piperazin-1-yl]ethyl}cyclohexyl)-acetamide] to `Cc1cccc(N2CCN(CC[C@H]3CC[C@H](NC(=O)CC(F)(F)F)CC3)CC2)c1` [Example 235, 3,3,3-Trifluoro-N-{4-[2-(4-m-tolylpiperazin-1-yl)ethyl]cyclohexyl}propanamide], the melting point rises from 119 °C to 170 °C.

Compared with `N#CCC(=O)N[C@H]1CC[C@H](CCN2CCN(c3cc(F)ccc3F)CC2)CC1` [Example 226, 2-Cyano-N-(4-{2-[4-(2,5-difluorophenyl)piperazin-1-yl]ethyl}cyclohexyl)acetamide], `N#CCC(=O)N[C@H]1CC[C@H](CCN2CCN(c3cc(Cl)ccc3Cl)CC2)CC1` [Example 228, 2-Cyano-N-(4-{2-[4-(2,5-dichlorophenyl)piperazin-1-yl]ethyl}cyclohexyl)acetamide] is lower in melting point: 198 °C for the first, 182 to 184 °C for the second.

First: N#CCCCC(=O)N[C@H]1CC[C@H](CCN2CCN(c3cccc(Cl)c3)CC2)CC1 [Example 229, N-(4-{2-[4-(3-Chlorophenyl)-piperazin-1-yl]ethyl}cyclohexyl)-4-cyanobutanamide]
Second: Cc1cccc(N2CCN(CC[C@H]3CC[C@H](NC(=O)CCCC#N)CC3)CC2)c1 [Example 234, 4-Cyano-N-{4-[2-(4-m-tolylpiperazin-1-yl)ethyl]cyclohexyl}butanamide]
The melting point of the first is higher: 171 to 173 °C for the first, 150 °C for the second.

Compared with `Cc1c(N2CCN(CC[C@H]3CC[C@H](NC(=O)CCCC#N)CC3)CC2)cccc1C(F)(F)F` [Example 230, 4-Cyano-N-(4-{2-[4-(2-methyl-3-trifluoromethylphenyl)piperazin-1-yl]ethyl}cyclohexyl)butanamide], `Cc1ccc(Cl)cc1N1CCN(CC[C@H]2CC[C@H](NC(=O)CCCC#N)CC2)CC1` [Example 248, N-(4-{2-[4-(5-Chloro-2-methylphenyl)piperazin-1-yl]ethyl}cyclohexyl)-4-cyanobutanamide] is lower in melting point: 162 °C for the first, 152 to 153 °C for the second.

First: CC(C)(C)c1cc(N2CCN(CC[C@H]3CC[C@H](NC(=O)CC#N)CC3)CC2)cc(C(C)(C)C)c1 [Example 232, 2-Cyano-N-(4-{2-[4-(3,5-di-tert-butylphenyl)piperazin-1-yl]ethyl}cyclohexyl)acetamide]
Second: Cc1ccc(N2CCN(CC[C@H]3CC[C@H](NC(=O)CC#N)CC3)CC2)cc1 [Example 242, 2-Cyano-N-{4-[2-(4-p-tolylpiperazin-1-yl)ethyl]cyclohexyl}acetamide]
The melting point of the first is lower: 168 °C for the first, 237 °C for the second.

Going from `N#CCCCC(=O)N[C@H]1CC[C@H](CCN2CCN(c3ccccc3Cl)CC2)CC1` [Example 233, N-(4-{2-[4-(2-Chlorophenyl)piperazin-1-yl]ethyl}cyclohexyl)-4-cyanobutanamide] to `CSc1ccccc1N1CCN(CC[C@H]2CC[C@H](NC(=O)CCCC#N)CC2)CC1` [Example 236, 4-Cyano-N-(4-{2-[4-(2-methylsulfanylphenyl)piperazin-1-yl]ethyl}cyclohexyl)butanamide], the melting point falls from 142 °C to 130 °C.

Compared with `N#CCC(=O)N[C@H]1CC[C@H](CCN2CCN(c3cccc4cccnc34)CC2)CC1` [Example 237, 2-Cyano-N-{4-[2-(4-quinolin-8-ylpiperazin-1-yl)ethyl]-cyclohexyl}acetamide], `N#CCC(=O)N[C@H]1CC[C@H](CCN2CCN(c3cccc4ncccc34)CC2)CC1` [Example 239, 2-Cyano-N-{4-[2-(4-quinolin-5-ylpiperazin-1-yl)ethyl]cyclohexyl}acetamide] is lower in melting point: 225 °C for the first, 220 °C for the second.

First: CSc1cccc(N2CCN(CC[C@H]3CC[C@H](NC(=O)CCCC#N)CC3)CC2)c1 [Example 238, 4-Cyano-N-(4-{2-[4-(3-methylsulfanylphenyl)piperazin-1-yl]ethyl}cyclohexyl)butanamide]
Second: CCc1cccc(N2CCN(CC[C@H]3CC[C@H](NC(=O)CCC#N)CC3)CC2)c1 [Example 251, 3-Cyano-N-(4-{2-[4-(3-ethylphenyl)piperazin-1-yl]ethyl}cyclohexyl)propanamide]
The melting point of the first is lower: 127 °C for the first, 143 °C for the second.

Compared with `N#CCC(=O)N[C@H]1CC[C@H](CCN2CCN(c3ccc(F)cc3)CC2)CC1` [Example 241, 2-Cyano-N-(4-{2-[4-(4-fluoro-phenyl)piperazin-1-yl]ethyl}cyclohexyl)acetamide], `CCc1ccccc1N1CCN(CC[C@H]2CC[C@H](NC(=O)CC#N)CC2)CC1` [Example 247, 2-Cyano-N-(4-{2-[4-(2-ethylphenyl)piperazin-1-yl]ethyl}cyclohexyl)acetamide] is lower in melting point: 209 °C for the first, 142 to 143 °C for the second.

Going from `CCOc1ccccc1N1CCN(CC[C@H]2CC[C@H](NC(=O)CC#N)CC2)CC1` [Example 243, 2-Cyano-N-(4-{2-[4-(2-ethoxyphenyl)piperazin-1-yl]ethyl}cyclohexyl)acetamide] to `CCc1cccc(N2CCN(CC[C@H]3CC[C@H](NC(=O)CC(F)(F)F)CC3)CC2)c1` [Example 250, N-(4-{2-[4-(3-Ethylphenyl)-piperazin-1-yl]ethyl}cyclohexyl)-3,3,3-trifluoropropanamide], the melting point rises from 138 °C to 154 °C.

First: CC(C)(C)c1nc(N2CCN(CC[C@H]3CC[C@H](NC(=O)CCC#N)CC3)CC2)cc(C(F)(F)F)n1 [Example 244]
Second: Cc1cc(C)cc(N2CCN(CC[C@H]3CC[C@H](NC(=O)CCCC#N)CC3)CC2)c1 [Example 249, 4-Cyano-N-(4-{2-[4-(3,5-dimethylphenyl)piperazin-1-yl]ethyl}cyclohexyl)butanamide]
The melting point of the first is lower: 151 °C for the first, 169 °C for the second.

From patent US8802678B2, “Carbonylated (aza) cyclohexanes as dopamine D3 receptor ligands” (Bioprojet, priority 2006, dated 2014)
